Oligonucleotides are written 5' to 3', each unit as a sugar letter and its base; * is a phosphorothioate linkage, no mark a phosphodiester; rarer units and linkages stand in square brackets, end groups in braces. Plain capitals give the bases only. e = 2'-O-(2-methoxyethyl) (MOE); [5mC] = 5-methylcytosine; d = 2'-deoxy (DNA)
Test system: electrically induced carotid artery thrombosis (ECAT) in rabbits; rabbit FXI mRNA
Test: Rabbit ECAT model after FXI antisense oligonucleotide treatment
Assay type: in vivo
Details: subcutaneous twice weekly for 4 weeks
Procedure: The rabbit ECAT model, described by Wong et al. was used in the rabbit ECAT study (Wang et al. J. Pharmacol. Exp. Ther. 295:212-8, 2002). The ECAT model was conducted 3 to 4 days after the last dose of vehicle, FXI-ASO2, or FXI-ASO1. FXI-ASO1 has the nominal nucleotide sequence of […] (SEQ ID NO: 1) and is complementary to a sequence within rabbit FXI mRNA. FXI-ASO2 (control ASO) has the nominal nucleotide sequence of […] (SEQ ID NO: 2) and has no known complementary sequence in rabbit mRNA. Oligonucleotides were chemically modified with phosphorothioate in the backbone and 2′-O-methoxyethyl on the wings with a central deoxy gap (so-called 5-10-5 design). Cytosine bases were rendered as 5-methylcytosine.
Separate samples for each dose of FXI-ASO1 and FXI-ASO2 were weighed on an analytical balance. […]
Male New Zealand White rabbits were anesthetized with ketamine (50 mg/kg+50 mg/kg/h intramuscularly) and xylazine (10 mg/kg+10 mg/kg/h intramuscularly). […] Carotid blood flow was measured with an electromagnetic flow probe continuously beginning 30 min before the electrical stimulation and over a 90-min period after stimulation to monitor thrombosis-induced occlusion. Integrated carotid blood flow, as a percentage of pre-electrical stimulation control period, was measured by the area under the flow-time curve. […]

## FXI-ASO2: control ASO CCTTCCCTGAAGGTTCCTCC (SEQ ID NO: 2), no known complementary sequence in rabbit mRNA (e[5mC]*e[5mC]*eT*eT*e[5mC]*d[5mC]*d[5mC]*dT*dG*dA*dA*dG*dG*dT*dT*e[5mC]*e[5mC]*eT*e[5mC]*e[5mC])
  thrombus weight: did not reduce thrombus weight

— patent US20250099466A1 (BRISTOL-MYERS SQUIBB COMPANY, priority 2021, published 2025)
